Experimental data published in patent publication US20190032014A1, “USING MICROBIOTA METABOLITES TO DIFFERENTIATE NAÏVE T-CELLS AND RELATED METHODS TO INDUCE OR PREVENT INFLAMMATORY CONDITIONS” (THE TEXAS A&M UNIVERSITY SYSTEM, priority 2016, published 2019).
Entries after “also recorded” stand apart in the source; their conditions may differ. Like-named read-outs stand apart in the source and are kept apart here.

What was measured:
CD4+ CD25− naïve T cells = experiment: In vitro naïve T cell differentiation, Th1-skew (IFN-γ+); assay type: cell-based, C57BL/6 mice; conditions: Th1 skewing conditions
Description: When naïve CD4+ CD25− cells were cultured 72 hours in αCD3/28 coated wells with Th0-, Th1- or Th2-skew cytokines and indole or solvent control, followed by stimulation with PMA, Ionomycin and Golgi Plug for the last 5 hours of culture, no effect on the % of Th1 and Th2 cells was observed (in contrast to the significant effect that indole has on Treg and Th17 cells; see FIGS. 2A and 2B).
CD4+ CD25− T cells were isolated to high purity (>98%) from the pooled spleen and mesenteric lymph nodes of C57BL/6 mice (Jackson Labs) with a BD FACS Aria II flow cytometer. Fc Block (BD), αCD4-efluor450 (eBioscience clone GK1.5) and αCD25-PECy7 (eBioscience clone PC61.5) antibodies were used for staining before sorting.
For Th1-skew: 5 ng/mL IL-12 (Peprotech cat. #210-12) and 10 µg/mL αIL-4 (BioXCell clone 11B11) were added to culture. For Th2-skew: 10 ng/mL IL-4 (Peprotech) and 10 μg/mL αIFN-γ (BioXCell clone R4-6A2) were added to culture. For Th17-skew: 10 ng/mL IL-6 (Peprotech), 5 ng/mL IL-23 (R&D), 0.5 ng/mL TGF-β (Peprotech), 10 μg/mL al-4 (BioXCell clone 11B11), and 10 μg/mL αIFN-γ (BioXCell clone R4-6A2) were added to culture. For Treg-skew: 2 ng/mL TGF-β (Peprotech) and 100 U/mL IL-2 (Roche) were added to culture. Sodium Propionate, sodium acetate, sodium butyrate and sodium chloride (all from Sigma-Aldrich) were solubilized in media and added to culture. Indole was solubilized in DMF (both from Sigma-Aldrich) at 2M and brought to final concentration in media. MGCD0103 (Selleck Chemicals) was solubilized in DMF at 2 mM and brought to final concentration in media. A 0.05% DMF solvent control was used for all experiments.

[1] = system: effector T cell proliferation; experiment: Suppression assay of effector T cell proliferation by iTregs; assay type: cell-based, mice
Description: (§1) FOXP3-EGFP naïve CD4+ CD25− cells cultured in αCD3/28 coated wells with Treg-skew cytokines and indole or solvent control were cultured for 72 hours, and assessed for FoxP3 expression and proliferation by CFSE dilution.
Specifically, FIG. 13 graphically illustrates the results of the suppression assay, showing the suppression of T-cell proliferation as determined by IL-2 production (an essential marker of T-cell proliferation) with increased proportions of Tregs added to co-cultures with effector T-cells..
After 72 h, cells are stimulated with PMA/ionomycin (10 ng/mL PMA, […] ionomycin). For flow cytometry, cells are treated with Golgi plug (Brefeldin A) for four hours and then stained with fluorophore-conjugated mAbs against both inflammatory (e.g., IL-6, IL-12, IL-17, TNF-α) and anti-inflammatory (e.g., IL-10, IL-35, TGF-β) cytokines. Samples are stained with the maximum number of antibodies. Furthermore, expression of established Treg markers (FOXP3, CD25hi, CD103, CD62L, GITR, PD-1, CD152, CD127, ICOS, Granzyme-B) [Vignali, D. A., L. W. Collison, and C. J. Workman, Nat Rev Immunol 8(7):523-32. (2008); Chen, J., et al., Int Immunopharmacol 11(5):610-7 (2011)] and markers of an inflammatory phenotype (RORγT) can be analyzed. […] The effect of the TDMMs on suppression of effector T cell proliferation is determined as described for FIG. 4. […]

iTregs [2] = experiment: iTreg cytokine expression (TGF-β, IL-10); assay type: cell-based, mice
Description: as §1
The iTregs were next assessed for cytokine production when conditioned with indole or butyrate.
For flow cytometry, cells are treated with Golgi plug (Brefeldin A) for four hours and then stained with fluorophore-conjugated mAbs against both inflammatory (e.g., IL-6, IL-12, IL-17, TNF-α) and anti-inflammatory (e.g., IL-10, IL-35, TGF-β) cytokines. Samples are stained with the maximum number of antibodies. Furthermore, expression of established Treg markers (FOXP3, CD25hi, CD103, CD62L, GITR, PD-1, CD152, CD127, ICOS, Granzyme-B) [Vignali, D. A., L. W. Collison, and C. J. Workman, Nat Rev Immunol 8(7):523-32. (2008); Chen, J., et al., Int Immunopharmacol 11(5):610-7 (2011)] and markers of an inflammatory phenotype (RORγT) can be analyzed. […] For all conditions, Tregs generated without the TDMM can be used as the control. The effect of the TDMMs on suppression of effector T cell proliferation is determined as described for FIG. 4. Such assays permit determination of whether the iTregs generated with different TDMMs are functional as natural Tregs.

mTOR = mTOR activation (% P-S6) in conditioned T cells; assay type: cell-based; conditions: matured conditioned T cells
Source text: The mechanistic target of rapamycin (mTOR) is a core component in multiple protein complexes that have significant influence on various cellular processes including cell growth, differentiation, and even enteropathies in the intestine. Accordingly, the interaction of indole and 5-HI on mTor activation was investigated.

[3] = system: T cells of spleen and mesenteric lymph nodes; experiment: In vivo acute T cell activation (αCD3) in spleen and MLN; design: species or system mice; conditions: administered with αCD3 at 0 and 48 hrs
Description: After 52 additional hours, the spleens were harvested and homogenized. Cells were plated, stimulated with PMA/lonomycin, stained for the indicated T cell markers, and subjected to FACS analysis. The graphs show the % IFN-γ+ CD4+ cells (FIG. 26A), the % IFN-γ+ CD4+ CD44^low cells (FIG. 26B), and the % IFN-γ+ CD4+ CD44^high cells (FIG. 26C) resulting from the various treatments. […] The graphs show the % IFN γ+ CD4+ cells (FIG. 27A), the % IFN γ+ CD4+ CD44low cells (FIG. 27B), and the % IFN γ+ CD4+ CD44high cells (FIG. 27C) resulting from the various treatments.
Fifteen μg of αCD3 (BioXcell clone 145-2C11) was administered via intra-peritoneal injection at 0 and 48 hours. […] At 52 hours, spleen and mesenteric lymph nodes were isolated and plated individually at a concentration of 1×10^6 cells/well with RPMI media supplemented with 2-mercaptoethanol, gentamicin, penicillin, and streptomycin+10% FCS (all from Life Technologies) in a 96-well round bottom plate (Falcon). Cells were immediately stimulated for 4 hours and stained. Specifically, for the last four hours of culture, cells were treated with golgi plug (BD), PMA and ionomycin (both from Sigma-Aldrich).

DSS colitis = DSS colitis model; conditions: 5% DSS 7 days, then indole 7 days; wild-type vs Rag-deficient mice
Description: FIG. 32A: Wild-type C57B16 mice were treated with 5% DSS, or not, in drinking water for 7 days. […] Individual mouse weight was recorded daily throughout experiment as a measure of inflammation. FIG. 32B: Mice were treated as in FIG. 32A, only mice were Rag-deficient mice, which lack lymphocytes (T- and B-cells).
For FIG. 32A, wild-type C57B16 mice were treated with 5% DSS, or not, in drinking water for 7 days. […] Individual mouse weight was recorded daily throughout experiment as a measure of inflammation. For FIG. 32B, Rag-deficient mice, which lack lymphocytes (T- and B-cells), were treated as in FIG. 32A and individual weight was recorded.

iTregs [4] = system: iTregs
Description: For example, TDMM- and control-induced Treg cultures from CD4+ CD25− GFP− naïve T cells of FOXP3EGFP mice are sorted based on GFP fluorescence. GFP+ cells (˜1×10^6 cells/mL) are cultured in the presence of pro-inflammatory cytokines IL-1, IL-6, IL-21 and IL-23 ±TCR stimulation on an anti-CD3/CD28 mAb coated plate for 24, 48 and 72 hours [Yang, X. O., et al., Immunity 29(1): p. […] Next, the stability (as measured by expression of FOXP3, RORγT, TGF-β, IL-10, IL-35 and IL-17) of TDMM-conditioned Tregs is analyzed compared to control-induced Tregs by ELISA of supernatants or 4 h treatment with Golgi plug (for cytokine staining) and subsequent intracellular staining with fluorophore-conjugated mAbs and flow cytometry.

c1ccc2[nH]ccc2c1 [Indole, indole]
% IFN-γ+ cells, indole combined with butyrate (CD4+ CD25− naïve T cells; regardless of 5-HI presence): the % IFN-γ+ cells decreases
% IFN-γ+ cells, indole combined with 5-HI (CD4+ CD25− naïve T cells; vs 5-HI alone): negated when 5-HI is combined with indole
effect on % Th1 cells (IFN-γ+) (CD4+ CD25− naïve T cells; vs solvent control): no effect; also recorded: did not influence the development of Th1 and Th2 cells; also recorded: did not affect the Th1 skewing of Th1 cells
suppression of effector T cell proliferation ([1]; indole-conditioned Tregs, 72-hour suppression assay, vs control iTregs (DMF)): suppress effector T cell proliferation function
suppression of T-cell proliferation (IL-2 production) ([1]; indole-induced iTregs vs nTregs or butyrate-induced iTregs): stronger suppressive characteristics, than nTregs or iTregs induced by butyrate
TGF-β secretion (iTregs [2]; indole-conditioned Tregs vs control iTregs (DMF), overnight re-stimulation with αCD3): secrete more TGF-β than conventional control iTregs (DMF)
IL-10 expression (iTregs [2]; indole-conditioned iTregs): inhibition of IL-10 expression
TGF-β expression (iTregs [2]; indole-conditioned vs butyrate-conditioned iTregs): increased TGF-β expression over butyrate-conditioned iTregs
% P-S6 (mTOR activation) (mTOR): significantly reduced
Treg differentiation in vivo (MLN) ([3]; mesenteric lymph nodes): synergizes with butyrate for the induction of Treg cells in vivo; also recorded: can augment Treg development in vivo when administered to the subject directly
Th1 differentiation in vivo (% IFN-γ+ CD4+ cells, spleen) ([3]; spleen): suppresses butyrate induction of Th1 cells in vivo
colitis (mouse weight as measure of inflammation) (DSS colitis): inhibits colitis in a T-cell-dependent manner
FoxP3 expression (iTregs [4]; control (DMF induced) iTregs in the presence of indole, after TCR stimulation (αCD3/28), without indole 9.3%): 26.1%
FoxP3 expression (iTregs [4]; control (DMF induced) iTregs in the presence of indole, first value, before TCR stimulation): 52.8%
FoxP3 expression (iTregs [4]; indole-induced iTregs cultured three days with 1 mM indole, first value): 64.2%
FoxP3 expression (iTregs [4]; indole-induced iTregs cultured three days with 1 mM indole, second value, after TCR stimulation): 52.2%
FoxP3 expression (iTregs [4]; indole-induced iTregs cultured three days with DMF, first value): 63%
FoxP3 expression (iTregs [4]; indole-induced iTregs cultured three days with DMF, second value, after TCR stimulation): 24.9%
